According to patent publication US5457106A, “Pyridine derivatives, their production and use” (Takeda Chemical Industries, Ltd., priority 1991, dated 1995):
Structures can show the parent of a compound that is named as a salt.

Tests used:
[1] = system: Mouse phenylquinone writhing; experiment: Mouse phenylquinone writhing inhibitory activity; type: in vivo, mouse (Slc: ICR); conditions: Mus musculus, po, 20 min, 50 mg/kg, orally; read-out: Inhibitory percentage (phenylquinone writhing)
Procedure, shortened: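 Male ICR mice (4 weeks, 17–24 g) dosed orally with compound suspended in 5% gum arabic. After 30 min, 0.02% phenylquinone (0.1 ml/10 g) given i.p.; writhing and stretching responses counted over 20 min.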

[2] = system: Rat reversed passive Arthus reaction (skin); experiment: Rat reversed passive Arthus reaction (skin) inhibitory activity; type: in vivo, rat (Jcl: SD); conditions: po, orally, read-out: Inhibitory percentage (reversed passive Arthus reaction)
Experimental: Rat Reversed Passive Arthus Reaction (skin) Inhibitory Activity This reaction was-induced by using domestic rabbit anti-egg albumin (EA) antiserum according to the method of Chang and Otterness [Chang, Y. -H. and Otterness, I. G.: Eur. J. Pharmacol. 69, 155 (1981)]. Using six Jcl: SD male rats (7 weeks old, weight about 250 g) per one group, the hair was removed from the back under ether anesthesia, 1 ml of 0.5% EA physiological saline was injected […] into the tail vein, and further each 0.1 ml of diluted antiserum (6 mg protein antibody/ml) was injected in the back on both dexter and sinister sides. […] Acceleration of permeability through the vessel by the reaction was measured by injecting 1 ml of 1% Evans blue physiological saline intravenously at three hours after the induction of the reaction. Then, after 30 minutes, the rat was sacrificed by exsanguination. The skin was peeled off and the area of pigment spot (length×breadth, mm^2) was measured.

[3] = system: ART (antigen-responding T-cell); experiment: In vitro ART (antigen-responding T-cell) proliferation test; type: cell-based, Lewis rat; conditions: Rattus norvegicus, T-cell, read-out: % Inhibition of ART growth
[4] = system: brewer's yeast induced pyrexia; experiment: Antipyretic activity (brewer's yeast induced pyrexia); type: in vivo, rat (DS line); conditions: orally; for Antipyretic activity, .increment. °C.: at peak time
Procedure, shortened: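 Male DS rats (7 weeks, 200-240 g) made febrile by s.c. 15% brewer's yeast 18 h before dosing; only animals at ≥38.5° C used. Compound given orally versus solvent control, with rectal temperature taken by thermistor hourly for 5 h post-dose.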

cyclooxygenase = biological target: T1, cyclooxygenase (Rattus norvegicus, UniProt Q63921); experiment: Cyclooxygenase inhibitory activity (HHT formation from arachidonic acid in rat platelet-rich plasma); type: cell-based, rat (Jcl:wistar)
T1 construct: from tissue; host or cells: platelets in platelet-rich plasma from rat abdominal aorta blood (Jcl:wistar, male)
T1 sequence (Q63921 27-602): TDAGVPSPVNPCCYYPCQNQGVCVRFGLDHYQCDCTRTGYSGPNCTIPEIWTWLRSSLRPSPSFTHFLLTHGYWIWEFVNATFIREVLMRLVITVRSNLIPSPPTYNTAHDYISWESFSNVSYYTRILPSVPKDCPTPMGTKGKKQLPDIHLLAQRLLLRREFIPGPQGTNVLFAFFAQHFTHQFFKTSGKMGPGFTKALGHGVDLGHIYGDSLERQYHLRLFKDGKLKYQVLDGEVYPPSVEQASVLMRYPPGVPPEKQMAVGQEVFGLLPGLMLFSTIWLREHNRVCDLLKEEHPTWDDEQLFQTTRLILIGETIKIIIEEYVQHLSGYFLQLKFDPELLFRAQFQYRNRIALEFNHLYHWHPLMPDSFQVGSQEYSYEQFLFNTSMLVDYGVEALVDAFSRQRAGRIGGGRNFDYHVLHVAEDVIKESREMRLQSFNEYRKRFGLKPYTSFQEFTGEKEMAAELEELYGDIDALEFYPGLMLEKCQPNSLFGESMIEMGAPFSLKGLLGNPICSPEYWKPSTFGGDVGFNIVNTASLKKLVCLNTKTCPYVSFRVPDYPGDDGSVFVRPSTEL

[5] = system: PAF induced respiratory tract constriction; experiment: PAF induced respiratory tract constriction inhibitory activity; type: in vivo, guinea pig (Hartley); conditions: intravenously
From the text: PAF Induced Respiratory Tract Constriction Inhibitory Activity Male and female Hartley guinea pigs, weighing about 100 g, were used. The guinea pigs were fixed at a dorsal position under urethane anethesia (1.5 g/kg, i.p.). One leg of a cannula (having four legs) was inserted in the trachea and two of the other three legs were bound to the respirator (Harvard apparatus rodent respirator). The remaining one leg (side branch) was bound to the bronchospasm transducer 7.020 (Ugobasile). Under the conditions of 5 to 7 ml of air supply/time, 70 times/min. of supply time and 10 cm H2 O of pulmonary pressure load, the amount of over flow air was recorded on a Rectigraph (Rectigraph-8S, Saneissoki) via the transducer. After Gallamine […] treatment (1 mg/kg, i.v.), PAF was administered intravenously (1.0 μg/kg) and the maximum respiratory tract constriction response was observed after 30 seconds. Under these conditions, the inhibitory activity of the test compounds were examined.

[6] = system: Mouse acetic acid writhing; experiment: Mouse acetic acid writhing inhibitory activity; type: in vivo, mouse (Slc: ICR); conditions: Mus musculus, po, 20 min, orally, read-out: Inhibitory percentage (acetic acid writhing)
Experimental: Mouse Acetic Acid Writhing Inhibitory Activity
Ten male Slc: ICR mice, 4 weeks old, per 1 group were used. A test compound was administered orally, and after 30 minutes, 0.1 ml/10 g body weight of physiological saline containing 0.6% acetic acid was injected intraperitoneally. For 20 minutes, writhing (in agony condition) response by administration of acetic acid was counted regarding individual animals. The inhibitory percentage relative to the mean response counts of a control group was calculated regarding respective animals in a test compound administration group. The test compound was suspended in 5% gum arabic solution, and the administration volume was 0.2 ml/10 g.

[7] = system: Rat carrageenin pedal edema; experiment: Rat carrageenin pedal edema inhibitory activity; type: in vivo, rat (Jcl: SD); conditions: Rattus norvegicus, po, 3 h, orally, 3 hours after carrageenin, read-out: Inhibitory percentage (carrageenin pedal edema)
Procedure, shortened: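 Male Jcl:SD rats (6 weeks, 160-220 g) received test compound orally as a 5% gum arabic suspension, topped up with water to 5 ml/rat. One hour later 0.05 ml of 1% carrageenin was injected subcutaneously into the right hind foot pad. Edema volume was the foot volume increase 3 hours post-injection.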

[8] = system: brewer's yeast inflamed rat hind limb foot pad pain threshold; experiment: Pain relief test by Randall Celit method; type: in vivo; conditions: orally
Experimental: Pain Relief Test By Randall Celit Method
Seven to eight male Jcl: […] rats, 5 weeks old, per one group were used. 0.1 ml of 10% brewer's yeast physiological saline suspension was injected subcutaneously in the rat dexter hind limb foot pad to induce inflammation. After three hours, the pain threshold was measured by pressure stimulating pain relief measuring apparatus manufactured by Ugo Basile Company (Cat. No. 7200) using an index of […] pain reflex in the inflammatory limb (dexter hind limb), and this was taken as response threshold value in the inflammatory limb. A test compound was administered after additional 45 minutes orally, and the threshold was measured after one and two hours. The efficacy was determined by comparing threshold of a control group and that of the test compound group. The test compound was suspended in 5% gum arabic solution and the administration volume was 0.5 ml/100 g.

ICAM-1 = experiment: Adhesion protein expression inhibitory activity, ICAM-1; type: cell-based; conditions: human umbilical vascular endothelial cells, TNF-α, 360 min
Experimental: (§1) Adhesion Protein Expression Inhibitory Activity The various concentrations of test compounds were added to the human umbilical cord-derived vascular endothelial cells [sold by Klabo] which were seeded in the gelatin coat plate and the mixture was incubated at 37° C. for 15 minutes. Then, the human tumor necrosis factor-α[TNF-α; sold by Genzyme] was added therein to the final concentration of 1 ng/ml and incubation was carried out at 37° C. for 3 hours for expression of ELAM-1 and for 6 hours for that of ICAM-I. After the reaction, the cells were fixed using glutaraldhyde and the expression amount of ELAM-1 and ICAM-1 was measured by the cell-ELISA method. That is, the expression was determined by […] the adhesion proteins on the cells in the system using anti-ELAM-1 antibody BBA-2 and anti-ICAM-1 antibody BBA4 as the first antibody as well as horseradish peroxidase-labeled rabbit anti-mouse IgG antibody as the second antibody.

ELAM-1 = experiment: Adhesion protein expression inhibitory activity, ELAM-1; type: cell-based; conditions: 13 μM, human umbilical vascular endothelial cells, TNF-α; 180 min
Experimental: as §1

Structure (SMILES) | inhibition at 1 µM [3] [%] | inhibition at 10 µM [3] [%] | Antipyretic activity, peak time ([4]; 50 mg/kg) [h] | Antipyretic activity, .increment. °C. ([4]; 50 mg/kg) [°C] | Inhibitory activity (PAF induced respiratory tract constriction) ([5]; 3 mg/kg) [%] | inhibition in vivo at 50 mg/kg [6] [%] | inhibition in vivo at 50 mg/kg [7] [%] | also measured
CC(C)(C)c1ccc(C(=O)NCCCSc2ccncc2)cc1 [Example 32, 4-[3-(4-t-butylbenzoylamino)propylthio]pyridine hydrochloride] | 43 | 37 | 1 | -1.39 | – | – | – | inhibition in vivo at 50 mg/kg [1]: 63%; inhibition in vivo at 50 mg/kg [2]: 41%; IC50 (cyclooxygenase): 6.5 µM
Cl.Cl.O=c1c2ccccc2n(CSc2ccncc2)c(=O)n1CCCCSc1ccncc1 [Example 199, 1-(4-pyridylthio)methyl-3-[4-(4-pyridylthio)butyl]quinazoline-2,4(1H,3H)-dione dihydrochloride] | – | – | – | – | 53.5 | – | – | –
O=C1CSC(=O)N1CSc1ccncc1 [Example 169, 4-(2,4-thiazolidinedionemethylthio)pyridine] | – | – | 2 | -2.43 | – | 96 | 44 | % Of Control (pain threshold) ([8]; 50 mg/kg, 1 hour): 215.2 ± 16.1 % Of Control; % Of Control (pain threshold) ([8]; 50 mg/kg, 2 hours): 158.4 ± 26.2 % Of Control; % Of Control (pain threshold) ([8]; 200 mg/kg, 1 hour): 242 ± 21.9 % Of Control; % Of Control (pain threshold) ([8]; 200 mg/kg, 2 hours): 326.1 ± 80.1 % Of Control; Antipyretic activity, peak time ([4]; 12.5 mg/kg): 2 h; Antipyretic activity, .increment. °C. ([4]; 12.5 mg/kg): -2.13 °C
O=c1c2ccccc2n(CCCCSc2ccncc2)c(=O)n1CCCCSc1ccncc1 [Example 147, 1,3-bis[4-(4-pyridylthio)butyl]quinazolin-2,4(1H,3H)-dione] | 9 | 72 | – | – | 50.7 | 46 | – | Expression Inhibitory Potency, ICAM-1 (ICAM-1; 13 μM): 83%; Expression Inhibitory Potency, ELAM-1 (ELAM-1): 96%; IC50 (cyclooxygenase): 1.8 µM
O=c1c2ccccc2oc(=S)n1CCCSc1ccncc1 [Example 141, 3-[3-(4-pyridylthio)propyl]-2H-1,3-benzoxadine-2-thion-4(3H)-one] | -21 | 64 | 3 | -2.40 | 51.7 | – | 36 | Expression Inhibitory Potency, ICAM-1 (ICAM-1; 3 μM): 21%; Expression Inhibitory Potency, ICAM-1 (ICAM-1; 30 μM): 54%; Antipyretic activity, peak time ([4]; 12.5 mg/kg): 3 h; Antipyretic activity, .increment. °C. ([4]; 12.5 mg/kg): -1.60 °C
CCC(=O)N(CCCCSc1ccncc1)c1ccccc1N(CCCCSc1ccncc1)C(=O)CC.Cl.Cl [Example 203, 1,2-bis[N-[4-(4-pyridylthio)butyl]-N-propionylamino]benzene dihydrochloride] | – | – | – | – | – | – | – | Inhibitory activity (PAF induced respiratory tract constriction) ([5]; 0.3 mg/kg): 90.4%
O=c1c2ccccc2oc(=S)n1CCCCSc1ccncc1 [Example 162, 3-[4-(4-pyridylthio)butyl]-2H-1,3-benzoxadine-2-thion-4(3H)-on] | -31 | -54 | – | – | 39.8 | – | 34 | –
O=C1c2ccccc2C(=O)N1CSc1ccncc1 [Example 62, 4-(phthalimidomethylthio)pyridine] | – | – | 4 | -1.40 | – | – | 36 | inhibition in vivo at 50 mg/kg [1]: 55%; inhibition in vivo at 12.5 mg/kg ([7]; 12.5 mg/kg): 20%; inhibition in vivo at 50 mg/kg [2]: 27%
Cl.Cl.O=c1c2ccccc2n(CCCCSc2ccncc2)c(=S)n1CCCCSc1ccncc1 [Example 200, 1,3-bis[4-(4-pyridylthio)butyl]quinazoline-2(1H)-thion-4(3H)-one dihydrochloride] | – | – | – | – | – | – | – | Expression Inhibitory Potency, ICAM-1 (ICAM-1; 13 μM): 83%; Expression Inhibitory Potency, ELAM-1 (ELAM-1): 71%; Inhibitory activity (PAF induced respiratory tract constriction) ([5]; 10 mg/kg): 61.4%
CC1(C)OC(=O)N(CSc2ccncc2)C1=O [Example 173, 4-(5,5-dimethyloxazolidine-2,4-dione)methylthiopyridine] | – | – | 2 | -2.02 | – | 75 | 23 | Expression Inhibitory Potency, ICAM-1 (ICAM-1; 30 μM): 35%; % Of Control (pain threshold) ([8]; 200 mg/kg, 1 hour): 222.7 ± 26.4 % Of Control; % Of Control (pain threshold) ([8]; 200 mg/kg, 2 hours): 165.8 ± 24.9 % Of Control
